Earlier results as cited in patent US20120295796A1, “System and Method of Predicting Chemical Interaction and Functionality of Molecules” (VASSA INFORMATICS, priority 2010, published 2012).

What was measured:
EGFR = EGFR (Homo sapiens, UniProt P00533); conditions: search utilizing the entire binding site
HMG-CoA reductase = molecular target: T1, HMG-CoA reductase (Homo sapiens, UniProt P04035); conditions: hit of Lipitor search, not structurally similar to Lipitor
T1 sequence (P04035 426-888 limits assumed): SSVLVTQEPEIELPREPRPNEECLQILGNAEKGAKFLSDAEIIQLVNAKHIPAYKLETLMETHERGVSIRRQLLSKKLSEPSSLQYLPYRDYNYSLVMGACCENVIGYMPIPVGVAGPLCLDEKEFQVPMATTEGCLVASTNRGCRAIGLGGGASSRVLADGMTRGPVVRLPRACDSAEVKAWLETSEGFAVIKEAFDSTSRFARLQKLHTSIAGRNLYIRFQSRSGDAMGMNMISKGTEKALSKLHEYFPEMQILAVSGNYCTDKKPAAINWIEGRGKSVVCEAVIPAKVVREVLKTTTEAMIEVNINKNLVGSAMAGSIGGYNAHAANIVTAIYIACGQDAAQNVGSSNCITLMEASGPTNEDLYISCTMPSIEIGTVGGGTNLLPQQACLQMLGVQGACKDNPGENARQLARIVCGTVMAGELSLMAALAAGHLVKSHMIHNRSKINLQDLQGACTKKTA

EGFR, sequence (P00533 25-1210): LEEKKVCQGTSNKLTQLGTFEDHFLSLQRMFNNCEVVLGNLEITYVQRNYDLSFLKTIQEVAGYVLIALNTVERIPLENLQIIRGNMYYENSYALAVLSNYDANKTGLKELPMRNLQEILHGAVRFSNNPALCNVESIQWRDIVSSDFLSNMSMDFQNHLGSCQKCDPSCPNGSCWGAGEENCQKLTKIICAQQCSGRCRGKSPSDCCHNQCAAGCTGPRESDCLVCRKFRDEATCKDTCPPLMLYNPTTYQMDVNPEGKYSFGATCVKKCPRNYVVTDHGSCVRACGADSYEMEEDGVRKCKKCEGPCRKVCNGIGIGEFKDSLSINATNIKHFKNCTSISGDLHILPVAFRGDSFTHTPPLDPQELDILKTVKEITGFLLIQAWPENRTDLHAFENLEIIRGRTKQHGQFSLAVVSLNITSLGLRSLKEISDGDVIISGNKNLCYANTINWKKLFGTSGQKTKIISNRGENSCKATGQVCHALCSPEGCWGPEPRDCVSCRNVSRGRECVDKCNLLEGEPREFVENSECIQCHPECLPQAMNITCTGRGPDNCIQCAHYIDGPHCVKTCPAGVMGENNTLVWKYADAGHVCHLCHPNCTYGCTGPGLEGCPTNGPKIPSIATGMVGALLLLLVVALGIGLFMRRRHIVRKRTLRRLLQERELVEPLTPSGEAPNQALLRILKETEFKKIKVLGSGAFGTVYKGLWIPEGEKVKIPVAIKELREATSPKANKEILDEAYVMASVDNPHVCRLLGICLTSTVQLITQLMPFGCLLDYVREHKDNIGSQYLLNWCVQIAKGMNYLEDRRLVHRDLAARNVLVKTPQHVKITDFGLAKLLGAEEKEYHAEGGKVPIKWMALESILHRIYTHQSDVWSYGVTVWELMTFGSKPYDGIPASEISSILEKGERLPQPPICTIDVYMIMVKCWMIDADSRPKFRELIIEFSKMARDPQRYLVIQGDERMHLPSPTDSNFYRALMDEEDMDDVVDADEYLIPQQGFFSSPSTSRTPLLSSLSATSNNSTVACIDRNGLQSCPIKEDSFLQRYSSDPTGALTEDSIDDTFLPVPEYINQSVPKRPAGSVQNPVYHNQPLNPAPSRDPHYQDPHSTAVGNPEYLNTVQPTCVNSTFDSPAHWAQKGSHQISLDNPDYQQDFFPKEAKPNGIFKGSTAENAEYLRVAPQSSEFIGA

binder status at the Tarceva binding site (ADP binding site) (EGFR) | known binding to HMG-CoA reductase (search result category Known Binders) (HMG-CoA reductase) | SMILES
already known or suspected as binders | – | Nc1ncnc2c1ncn2[C@@H]1O[C@H](COP(=O)(O)OP(=O)(O)O)[C@@H](O)[C@H]1O [ADP]
already known or suspected as binders | – | Nc1ncnc2c1ncn2[C@@H]1O[C@H](COP(=O)(O)O)[C@@H](O)[C@H]1O [AMP]
– | binds HinG-CoA reductase | CC(C)(COP(=O)(O)OP(=O)(O)OC[C@H]1O[C@@H](n2cnc3c(N)ncnc32)[C@H](O)[C@@H]1OP(=O)(O)O)[C@@H](O)C(=O)NCCC(=O)NCCS [Coenzyme A]

SMILES | binder status at the Tarceva binding site (ADP binding site) (EGFR) | known binding to HMG-CoA reductase (search result category Known Binders) (HMG-CoA reductase)
Nc1ncnc2c1ncn2[C@@H]1O[C@H](COP(=O)(O)OP(=O)(O)OP(=O)(O)O)[C@@H](O)[C@H]1O [ATP] | already known or suspected as binders | –
